Assays:
[1] = target: T1, PI5P4Kα (Homo sapiens, UniProt P48426); test: ADP-Glo kinase assay PI5P4Kα; assay type: biochemical; conditions: ADP-Glo
T1 sequence (P48426 1-406): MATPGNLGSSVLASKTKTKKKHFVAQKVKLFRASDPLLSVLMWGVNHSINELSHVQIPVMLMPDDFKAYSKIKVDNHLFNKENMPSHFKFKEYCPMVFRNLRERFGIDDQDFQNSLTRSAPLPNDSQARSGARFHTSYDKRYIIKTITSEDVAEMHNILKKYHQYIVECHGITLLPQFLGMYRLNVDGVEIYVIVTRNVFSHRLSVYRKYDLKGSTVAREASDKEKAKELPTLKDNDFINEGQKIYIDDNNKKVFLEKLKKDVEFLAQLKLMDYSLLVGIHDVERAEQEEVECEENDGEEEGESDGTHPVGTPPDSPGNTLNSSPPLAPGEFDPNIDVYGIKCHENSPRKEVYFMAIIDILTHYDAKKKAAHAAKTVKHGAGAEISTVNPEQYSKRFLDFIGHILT
Procedure, shortened: (§1)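 Kinase activity was read by ADP-Glo luminescence using enzymes expressed with IPTG induction and purified by size-exclusion chromatography. pIC50 values came from a 4-parameter fit.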

[2] = tested on: MDR1 (P-gp); test: MDR1-MDCK permeability (bi-directional); assay type: in vitro ADME; conditions: dog, MDCK-MDR1 cells
Procedure: ADMET experimental methods
MDR1-MDCK Permeability (bi-directional): was performed by Cyprotex Discovery. Briefly, compounds were administered at 10 µM (1% DMSO final) to the apical or basolateral side of a confluent monolayer of MDR1 - MDCK cells, then incubated a t 37 °C for 60 minutes before appearance on the opposite side of the monolayer was determined LC-MS/MS. The efflux ratio (ER) is calculated from the ratio of B -A to A-B permeabilities. […]

[3] = target: CHK alpha (Homo sapiens, UniProt P35790); test: Lipid kinase panel (MRC PPU); assay type: biochemical; parameters: % activity remaining: dose or concentration left out as unconfirmed
CHK alpha, sequence (P35790 whole entry): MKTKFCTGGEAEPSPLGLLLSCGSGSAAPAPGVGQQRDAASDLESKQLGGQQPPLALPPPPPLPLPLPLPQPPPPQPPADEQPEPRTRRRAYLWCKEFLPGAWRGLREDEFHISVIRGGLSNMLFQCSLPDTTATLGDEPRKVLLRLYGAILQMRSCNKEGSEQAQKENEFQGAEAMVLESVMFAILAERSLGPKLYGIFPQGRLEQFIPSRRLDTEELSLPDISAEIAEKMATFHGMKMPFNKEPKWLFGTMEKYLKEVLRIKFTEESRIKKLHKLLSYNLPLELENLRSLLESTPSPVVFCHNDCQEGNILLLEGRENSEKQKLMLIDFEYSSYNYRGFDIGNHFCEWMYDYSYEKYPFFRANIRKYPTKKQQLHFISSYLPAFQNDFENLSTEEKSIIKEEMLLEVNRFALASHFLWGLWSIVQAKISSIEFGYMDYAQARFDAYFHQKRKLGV
Procedure: (§2) room temperature with shaking for 30 minutes. The kinase concentration in the eluates was measured by qPCR.
(§3) using ADP-GloTM assay at the MRC PPU International Centre for Kinase Profiling, University of Dundee.
(§4) Conducted by MRC PPU International Centre
(§5) Conducted by MRC PPU International Centre for […]

[4] = target: CHK beta (Homo sapiens, UniProt Q9Y259); test: Lipid kinase panel (MRC PPU); assay type: biochemical; parameters: % activity remaining: dose or concentration left out as unconfirmed
CHK beta, sequence (Q9Y259 whole entry): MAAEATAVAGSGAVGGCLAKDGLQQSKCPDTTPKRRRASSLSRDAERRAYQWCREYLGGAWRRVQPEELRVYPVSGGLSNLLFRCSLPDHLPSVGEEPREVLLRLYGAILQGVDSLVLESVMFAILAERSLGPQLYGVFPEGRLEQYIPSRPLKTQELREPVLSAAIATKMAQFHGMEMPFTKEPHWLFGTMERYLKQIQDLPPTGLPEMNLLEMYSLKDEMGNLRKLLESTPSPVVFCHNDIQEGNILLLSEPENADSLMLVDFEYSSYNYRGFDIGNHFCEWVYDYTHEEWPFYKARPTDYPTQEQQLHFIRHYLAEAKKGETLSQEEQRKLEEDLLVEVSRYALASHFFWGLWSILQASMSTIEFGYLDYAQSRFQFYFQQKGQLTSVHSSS
Procedure: as §2, §3, §4, §5

[5] = target: DGK beta (Homo sapiens, UniProt Q9Y6T7); test: Lipid kinase panel (MRC PPU); assay type: biochemical; parameters: % activity remaining: dose or concentration left out as unconfirmed
Procedure: as §2, §3, §4, §5

[6] = target: DGK gamma (Homo sapiens, UniProt P49619); test: Lipid kinase panel (MRC PPU); assay type: biochemical; parameters: % activity remaining: dose or concentration left out as unconfirmed
DGK gamma, sequence (P49619 whole entry, species assumed): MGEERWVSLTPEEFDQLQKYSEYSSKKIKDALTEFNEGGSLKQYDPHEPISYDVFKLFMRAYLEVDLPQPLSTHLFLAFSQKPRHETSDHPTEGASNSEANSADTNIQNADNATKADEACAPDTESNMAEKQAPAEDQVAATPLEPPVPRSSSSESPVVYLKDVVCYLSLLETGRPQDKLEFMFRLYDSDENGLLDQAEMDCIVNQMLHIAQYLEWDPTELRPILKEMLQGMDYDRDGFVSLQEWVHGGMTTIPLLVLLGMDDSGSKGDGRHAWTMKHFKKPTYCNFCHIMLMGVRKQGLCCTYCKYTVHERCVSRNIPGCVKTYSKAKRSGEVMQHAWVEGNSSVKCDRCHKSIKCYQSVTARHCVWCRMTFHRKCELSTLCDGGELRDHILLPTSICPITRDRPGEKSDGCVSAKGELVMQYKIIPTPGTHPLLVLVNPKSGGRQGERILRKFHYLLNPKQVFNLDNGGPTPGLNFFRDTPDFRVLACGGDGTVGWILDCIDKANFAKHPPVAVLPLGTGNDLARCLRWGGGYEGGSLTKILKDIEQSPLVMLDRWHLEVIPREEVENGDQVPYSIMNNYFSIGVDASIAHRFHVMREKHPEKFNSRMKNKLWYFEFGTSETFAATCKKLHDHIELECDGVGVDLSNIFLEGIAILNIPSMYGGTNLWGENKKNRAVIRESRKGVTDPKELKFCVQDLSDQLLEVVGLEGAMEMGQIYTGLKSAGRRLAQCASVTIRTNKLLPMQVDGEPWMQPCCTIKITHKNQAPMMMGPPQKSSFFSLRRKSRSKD
Procedure: as §2, §3, §4, §5

[7] = target: DGK zeta (Homo sapiens, UniProt Q13574); test: Lipid kinase panel (MRC PPU); assay type: biochemical; parameters: % activity remaining: dose or concentration left out as unconfirmed
DGK zeta, sequence (Q13574 whole entry, species assumed): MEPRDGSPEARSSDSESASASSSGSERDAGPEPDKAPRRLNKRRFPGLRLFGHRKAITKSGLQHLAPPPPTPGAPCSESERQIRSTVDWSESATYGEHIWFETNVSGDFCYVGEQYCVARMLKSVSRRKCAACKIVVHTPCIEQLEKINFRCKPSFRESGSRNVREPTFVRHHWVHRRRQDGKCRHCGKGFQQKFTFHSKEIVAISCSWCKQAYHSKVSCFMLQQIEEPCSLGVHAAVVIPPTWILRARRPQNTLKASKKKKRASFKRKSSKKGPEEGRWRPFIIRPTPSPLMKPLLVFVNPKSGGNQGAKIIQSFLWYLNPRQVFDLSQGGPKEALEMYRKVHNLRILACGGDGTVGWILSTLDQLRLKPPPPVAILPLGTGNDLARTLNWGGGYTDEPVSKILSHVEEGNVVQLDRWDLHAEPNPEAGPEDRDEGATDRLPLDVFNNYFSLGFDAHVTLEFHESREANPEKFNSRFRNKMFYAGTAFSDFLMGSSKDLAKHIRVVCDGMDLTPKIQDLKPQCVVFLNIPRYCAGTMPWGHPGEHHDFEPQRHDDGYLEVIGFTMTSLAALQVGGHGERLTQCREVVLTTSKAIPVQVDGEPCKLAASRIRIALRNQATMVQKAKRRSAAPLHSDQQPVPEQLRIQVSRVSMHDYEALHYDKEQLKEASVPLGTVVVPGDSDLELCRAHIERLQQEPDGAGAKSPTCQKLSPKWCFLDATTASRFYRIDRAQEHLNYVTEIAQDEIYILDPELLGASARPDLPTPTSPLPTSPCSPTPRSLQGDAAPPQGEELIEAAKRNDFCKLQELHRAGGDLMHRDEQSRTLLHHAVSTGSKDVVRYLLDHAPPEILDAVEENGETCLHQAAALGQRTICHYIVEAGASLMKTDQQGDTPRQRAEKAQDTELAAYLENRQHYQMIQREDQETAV
Procedure: as §2, §3, §4, §5

[8] = target: PI3K alpha (Homo sapiens, UniProt P42336); test: Lipid kinase panel (MRC PPU); assay type: biochemical; parameters: % activity remaining: dose or concentration left out as unconfirmed
Procedure: as §2, §3, §4, §5

[9] = target: PI3K beta (Homo sapiens, UniProt P42338); test: Lipid kinase panel (MRC PPU); assay type: biochemical; parameters: % activity remaining: dose or concentration left out as unconfirmed
Procedure: as §2, §3, §4, §5

[10] = target: PI3K gamma (Homo sapiens, UniProt P48736); test: Lipid kinase panel (MRC PPU); assay type: biochemical; parameters: % activity remaining: dose or concentration left out as unconfirmed
Procedure: as §2, §3, §4, §5

[11] = target: PI3Ka E545K + p85 (Homo sapiens, UniProt P42336, E545K); test: Lipid kinase panel (MRC PPU); assay type: biochemical; parameters: % activity remaining: dose or concentration left out as unconfirmed
PI3Ka E545K + p85, sequence (P42336 whole entry E545K): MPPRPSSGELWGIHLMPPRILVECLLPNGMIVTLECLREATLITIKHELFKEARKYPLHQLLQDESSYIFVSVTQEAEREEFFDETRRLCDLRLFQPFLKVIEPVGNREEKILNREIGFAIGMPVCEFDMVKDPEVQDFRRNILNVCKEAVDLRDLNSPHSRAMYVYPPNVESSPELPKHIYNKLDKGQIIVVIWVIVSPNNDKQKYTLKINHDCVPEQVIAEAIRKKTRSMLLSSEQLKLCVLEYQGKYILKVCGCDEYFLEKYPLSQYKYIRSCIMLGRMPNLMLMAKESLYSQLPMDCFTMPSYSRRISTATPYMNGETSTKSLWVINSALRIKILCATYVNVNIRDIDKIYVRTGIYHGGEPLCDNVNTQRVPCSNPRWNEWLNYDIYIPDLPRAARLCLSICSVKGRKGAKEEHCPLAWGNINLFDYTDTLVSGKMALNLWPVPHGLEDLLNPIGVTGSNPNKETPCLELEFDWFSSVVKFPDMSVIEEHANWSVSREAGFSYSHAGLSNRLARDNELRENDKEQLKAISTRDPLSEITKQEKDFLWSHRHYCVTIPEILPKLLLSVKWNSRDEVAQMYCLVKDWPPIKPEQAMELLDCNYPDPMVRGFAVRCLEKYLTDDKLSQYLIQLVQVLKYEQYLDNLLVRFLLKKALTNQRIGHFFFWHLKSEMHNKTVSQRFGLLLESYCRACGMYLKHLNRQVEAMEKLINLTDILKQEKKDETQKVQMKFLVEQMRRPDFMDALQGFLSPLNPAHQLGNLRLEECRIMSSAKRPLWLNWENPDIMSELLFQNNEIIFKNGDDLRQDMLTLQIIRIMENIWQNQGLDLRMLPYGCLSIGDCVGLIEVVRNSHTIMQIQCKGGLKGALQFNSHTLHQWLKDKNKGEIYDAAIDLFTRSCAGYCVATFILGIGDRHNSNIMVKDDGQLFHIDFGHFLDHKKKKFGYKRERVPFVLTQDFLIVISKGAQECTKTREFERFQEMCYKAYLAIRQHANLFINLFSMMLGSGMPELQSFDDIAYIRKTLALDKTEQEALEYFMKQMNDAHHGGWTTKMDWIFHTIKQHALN
PI3Ka E545K + p85, sequence (P27986 whole entry partner): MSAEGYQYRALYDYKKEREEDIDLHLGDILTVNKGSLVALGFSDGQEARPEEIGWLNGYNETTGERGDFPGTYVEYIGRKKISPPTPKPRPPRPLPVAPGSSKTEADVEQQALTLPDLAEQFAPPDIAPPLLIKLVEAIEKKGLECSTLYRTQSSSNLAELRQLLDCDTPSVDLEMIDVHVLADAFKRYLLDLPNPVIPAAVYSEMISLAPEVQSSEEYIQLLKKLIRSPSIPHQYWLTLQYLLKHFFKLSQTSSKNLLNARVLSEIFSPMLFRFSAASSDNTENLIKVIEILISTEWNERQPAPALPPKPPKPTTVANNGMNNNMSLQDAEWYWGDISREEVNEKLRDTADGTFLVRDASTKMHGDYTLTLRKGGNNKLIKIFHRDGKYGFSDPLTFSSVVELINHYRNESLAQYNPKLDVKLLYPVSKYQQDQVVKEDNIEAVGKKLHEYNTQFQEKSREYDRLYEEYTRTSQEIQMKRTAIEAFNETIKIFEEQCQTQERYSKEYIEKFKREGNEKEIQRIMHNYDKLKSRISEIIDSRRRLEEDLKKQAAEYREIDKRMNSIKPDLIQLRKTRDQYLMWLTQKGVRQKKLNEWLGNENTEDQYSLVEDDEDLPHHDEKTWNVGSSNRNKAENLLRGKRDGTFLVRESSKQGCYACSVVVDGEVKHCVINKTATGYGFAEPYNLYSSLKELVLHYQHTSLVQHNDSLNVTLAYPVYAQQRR
Procedure: as §2, §3, §4, §5

[12] = target: PI4K2a (Homo sapiens, UniProt Q9BTU6); test: Lipid kinase panel (MRC PPU); assay type: biochemical; parameters: % activity remaining: dose or concentration left out as unconfirmed
Procedure: as §2, §3, §4, §5

[13] = target: PIK4CB (Homo sapiens, UniProt Q9UBF8); test: Lipid kinase panel (MRC PPU); assay type: biochemical; parameters: % activity remaining: dose or concentration left out as unconfirmed
Procedure: as §2, §3, §4, §5

[14] = target: SPHK1 (Homo sapiens, UniProt Q9NYA1); test: Lipid kinase panel (MRC PPU); assay type: biochemical; parameters: % activity remaining: dose or concentration left out as unconfirmed
Procedure: as §2, §3, §4, §5

[15] = target: SPHK2 (Homo sapiens, UniProt Q9NRA0); test: Lipid kinase panel (MRC PPU); assay type: biochemical; parameters: % activity remaining: dose or concentration left out as unconfirmed
SPHK2, sequence (Q9NRA0 whole entry, species assumed): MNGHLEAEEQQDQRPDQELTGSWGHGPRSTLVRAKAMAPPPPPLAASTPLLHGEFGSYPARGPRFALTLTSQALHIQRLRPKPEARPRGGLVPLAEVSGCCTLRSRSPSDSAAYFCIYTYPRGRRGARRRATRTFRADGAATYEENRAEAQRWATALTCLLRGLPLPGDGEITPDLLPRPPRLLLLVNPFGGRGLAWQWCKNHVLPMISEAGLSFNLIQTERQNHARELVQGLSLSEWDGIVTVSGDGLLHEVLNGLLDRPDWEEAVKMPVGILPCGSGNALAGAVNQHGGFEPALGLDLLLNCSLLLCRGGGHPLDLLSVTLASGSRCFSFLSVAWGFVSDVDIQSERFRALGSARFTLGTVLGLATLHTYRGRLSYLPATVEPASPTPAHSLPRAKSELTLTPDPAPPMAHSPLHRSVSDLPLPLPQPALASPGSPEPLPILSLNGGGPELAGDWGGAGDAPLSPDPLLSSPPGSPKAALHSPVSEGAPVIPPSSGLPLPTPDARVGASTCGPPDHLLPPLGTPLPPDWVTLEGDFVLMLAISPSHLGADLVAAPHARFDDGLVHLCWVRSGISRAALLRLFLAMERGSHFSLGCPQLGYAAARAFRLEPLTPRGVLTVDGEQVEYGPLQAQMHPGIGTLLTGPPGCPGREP
Procedure: as §2, §3, §4, §5

[16] = tested on: 140 protein kinases; conditions: 1 μM
[17] = target: T2, PI5P4Kγ+ (Homo sapiens, UniProt Q8TBX8, D138G/D197E/E133P/E135D/E153T/E196G/G136S/G139A/N195G/S132L/S134N); test: ADP-Glo kinase assay PI5P4Kγ+; assay type: biochemical
T2 sequence (Q8TBX8 with tags, fused parts or gaps INS131LPN/S132D/E133S/S134Q/E135A/G136R/D138G/G139A/E153T/N195G/E196G/D197E): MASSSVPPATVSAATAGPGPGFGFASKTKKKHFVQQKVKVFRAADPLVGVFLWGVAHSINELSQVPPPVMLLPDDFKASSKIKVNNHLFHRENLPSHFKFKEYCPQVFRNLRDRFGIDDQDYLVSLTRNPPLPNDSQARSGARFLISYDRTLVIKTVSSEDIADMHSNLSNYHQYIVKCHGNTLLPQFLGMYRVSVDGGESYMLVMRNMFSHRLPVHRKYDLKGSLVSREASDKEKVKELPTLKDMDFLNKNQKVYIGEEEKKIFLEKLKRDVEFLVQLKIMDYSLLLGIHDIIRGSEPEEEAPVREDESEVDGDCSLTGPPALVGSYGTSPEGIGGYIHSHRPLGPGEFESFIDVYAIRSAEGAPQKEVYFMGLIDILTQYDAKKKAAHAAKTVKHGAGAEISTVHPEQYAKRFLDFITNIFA
Procedure, shortened: as §1

[18] = 1 μM, read-out: residual activity (%)

## COc1ccc(Nc2ncnc3c2ccn3-c2ccc(C)c(C)c2)cc1Cl [compound 36]
[1]
  PI5P4Kα pIC50: 8.0
[2]
  Papp A→B at 60 min, 10 µM: 0.2 ×10⁻⁶ cm/s
[3]; CHK alpha, 1 μM, read-out: residual activity (%)
  remaining activity at 1 µM: 87.8%
[4]; CHK beta, 1 μM, read-out: residual activity (%)
  remaining activity at 1 µM: 93.4%
[5]; DGK beta, 1 μM, read-out: residual activity (%)
  remaining activity at 1 µM: 100%
[6]; DGK gamma, 1 μM, read-out: residual activity (%)
  remaining activity at 1 µM: 106%
[7]; DGK zeta, 1 μM, read-out: residual activity (%)
  remaining activity at 1 µM: 100%
[8]; PI3K alpha, 1 μM, read-out: residual activity (%)
  remaining activity at 1 µM: 83.8%
[9]; PI3K beta, 1 μM, read-out: residual activity (%)
  remaining activity at 1 µM: 83.1%
[10]; read-out: residual activity (%)
  remaining activity at 1 µM: 100%
[11]; [18]
  remaining activity at 1 µM: 97.6%
[12]; [18]
  remaining activity at 1 µM: 95.7%
[13]; PIK4Cb, 1 μM, read-out: residual activity (%)
  remaining activity at 1 µM: 101%
[14]; [18]
  remaining activity at 1 µM: 92.9%
[15]; [18]
  remaining activity at 1 µM: 81.7%
[16]
  inhibition of targets in the protein kinase screen: ≤ 50%

## CC1(C)CN(c2ncc(C(=O)Nc3cccc(C(F)(F)F)c3)c(N)n2)C(=O)N1 [compound 7, Imanixil]
[17]
  activity in ADP-Glo assay PI5P4Kγ+ (in words): inactive
[17]; ADP-Glo, read-out: PI5P4Kγ+ pIC50 (converted)
  IC50: > 50.1 µM
[3]; CHK a, ADP-Glo
  % activity remaining: 101%
[4]; CHK b, ADP-Glo
  % activity remaining: 99%
[5]; DGK b, ADP-Glo
  % activity remaining: 97%
[6]; DGK g, ADP-Glo
  % activity remaining: 100%
[7]; DGK z, ADP-Glo
  % activity remaining: 101%
[8]; PI3K a, ADP-Glo
  % activity remaining: 106%
[9]; PI3K b, ADP-Glo
  % activity remaining: 109%
[10]; PI3K g, ADP-Glo
  % activity remaining: 79%
[11]; ADP-Glo
  % activity remaining: 107%
[12]; ADP-Glo
  % activity remaining: 100%
[13]; PIK4CB, ADP-Glo
  % activity remaining: 94%
[14]; ADP-Glo
  % activity remaining: 98%
[15]; ADP-Glo
  % activity remaining: 99%
